Measured values taken from patent US11358931B2, “Selective androgen receptor modulators (SARMs) and uses thereof” (priority 2007, dated 2022).

Test system: orchidectomized male Sprague-Dawley rat
Experiment: In vivo assay, orchidectomized mature male rats (14 days oral)
Conditions: for exposure (AUC24) at which muscle mass is stimulated above sham equivalent levels: ORX male rats, 14 days PO
Text: The orchidectomized male Sprague-Dawley rat model was used to assess the effects of Compound 102 on various reproductive, gonadotropin and musculoskeletal endpoints, including sex accessory organs, bone, serum gonadotropin levels and striated muscle in mature male rats.
In this assay, two-month old rats were acclimated in a vivarium for one week. After this acclimation period, rats were surgically orchidectomized under isoflurane anesthesia and left untreated for 14 days. After 14 days, animals were sorted into groups such that no statistically significant differences in mean body weights were observed. Rats began receiving treatment 14 days after the day of surgery. Sham-operated and orchidectomized rats, treated with vehicle, served as controls. The different test groups were treated with various doses of Compound 102 (0.03 to 100 mg/kg/day per os (by mouth)). Dosages included 0.03, 0.1, 0.3, 1, 3, 10, 30 and 100 mg/kg/day. Ostarine, a non-steroidal androgenic drug (Evans et al., J Clin Oncology 25: 9119 (2007)) was dosed at dosages similar to other test groups as a comparison. After the 14th dose, venous blood was collected at 0, 1, 2, 4 and 6 hours after dosing. The blood samples were collected in EDTA-containing tubes (Becton Dickinson, Franklin Lakes, N.J.). Approximately 24 hours after the last dose, animals were euthanized and seminal vesicle weights, ventral prostate weights, levator ani weights, preputial gland weights and blood samples were collected on necropsy.
For serum, whole blood (5 mL) was collected in vacutainer tubes (Becton Dickinson) and the blood samples were allowed to clot at room temperature for about 2 hours. Serum was separated by centrifugation at 2500 rpm for 30 minutes, collected and frozen (−80° C.). For plasma, whole blood was collected in EDTA-containing tubes by centrifugation at 1000×g for 5 minutes at 4° C. Plasma samples were stored at −20° C.
For the preparation of all dose formulations, the appropriate amount of test compound (Compound 102) for the highest concentration to be administered was weighed. The compound was suspended in the formulation vehicle (5% Tween®-80 polysorbate, 90% PEG-400 polyethylene glycol and 5% PVP-K30 polyvinylpyrrolidone). The suspension was sonicated for 15 minutes, and the resulting formulation was diluted using vehicle to obtain the proper volume and concentrations of the dosing materials to achieve a dosing volume of 1 mL/kg body weight.
Serum samples were assayed with a double anti-serum procedure using reagents from the National Institute of Diabetes and Digestive and Kidney Diseases (NIDDK). Sample compounds and standards (NIDDK-rLH-RP-3) in a total volume of 200 μL were incubated at room temperature for 2 to 3 days with 100 μL primary anti-serum (rat LH antiserum: rabbit NIDDK-anti-rLH-S-11) diluted 1:100,000. Then, 100 μL of ^125I-labeled LH (Covance Laboratories Madison, Wis.) diluted 200,000-300,000 cpm/mL was added to the tubes and incubation continued for an additional 24 hour period.
Bound hormone was separated from free hormone by precipitation with a specific goat ant-rabbit serum (GARS from Antibodies, Inc., Davis, Calif.). An aliquot of 50 μL of 4% normal rabbit serum was added to each incubation tube, after which an additional 50 μL of a 1:10 GARS solution was added. The tubes were vortexed and incubated overnight at 4° C.
The assay was terminated by centrifugation at 2,500 rpm for 30 minutes in a Sorvall RC 3C Plus centrifuge (rotor #H2000B) at 4° C. The supernatants were decanted and discarded and the pellets were counted in a 10-channel gamma-counter.
Serum osteocalcin, a vitamin K-dependent, calcium binding protein, is a biochemical marker that reflects bone formation activity (Gundberg, J Clin Ligand Assay 21: 128-138 (1998)). Serum osteocalcin was quantitated using an IRMA kit from Immutopics, Inc. (#50-1500, San Clemente, Calif.). […] The test uses two different antibodies to measure the serum osteocalcin. […]

| Compound | exposure (AUC24) at which muscle mass is stimulated above sham equivalent levels | restoration of ventral prostate to sham equivalents (any dose) | preputial gland weight (30 mg/kg/day, statistically significant) | ventral prostate or seminal vesicles, % of sham levels (100 mg/kg/day PO (highest dose)) | preputial gland weight (all doses less than 10 mg/kg/day PO) | ventral prostate, % of sham equivalent levels (exposures of 1 μg·/mL or greater) |
| --- | --- | --- | --- | --- | --- | --- |
| C[C@](O)(COc1ccc(C#N)cc1)C(=O)Nc1ccc(C#N)c(C(F)(F)F)c1 [ostarine] | greater than 10 μg·/mL | did not restore ventral prostate to sham equivalents at any dose | – | – | – | – |
| N#Cc1ccc(N2CCC[C@@H]2[C@@H](O)C(F)(F)F)cc1C(F)(F)F [Compound 102, R,R-4-(2-(1-Hydroxyl-2,2,2-trifluoroethyl)-pyrrolidinyl)-2-trifluoromethyl-benzonitrile] | ≥ 1 µg·h/mL | – | increased preputial gland weight above the sham level | approximately 50% | remained below vehicle equivalent levels | less than 50% |
